The record followed here is US8173653B2, “Pyridiazinone derivatives for the treatment of tumours” (Merck Patent Gesellschaft MIT Beschraenkter Haftung, priority 2005, dated 2012).

In this test the target is T1, Met kinase (Homo sapiens, UniProt P08581).
T1 construct: 6His (N); purchased Upstate 14-526; host or cells: insect cells (Sf21; S. frugiperda), baculovirus
As to the kind of experiment: Met kinase inhibition (enzyme assay), flashplate method. In kind it is biochemical. On the procedure: Flashplate Method (Met Kinase)
The test plates used are 96-well Flashplate® microtitre plates from Perkin Elmer (Cat. No. SMP200). The components of the kinase reaction described below are pipetted into the assay plate. The Met kinase and the substrate poly Ala-Glu-Lys-Tyr, (PAGLT, 6:2:5:1), are incubated for 3 hrs at room temperature with radioactively labelled ^33P-ATP in the presence and absence of test substances in a total volume of 100 μl. The reaction is terminated using 150 μl of a 60 mM EDTA solution. After incubation for a further 30 min at room temperature, the supernatants are filtered off with suction, and the wells are washed three times with 200 μl of 0.9% NaCl solution each time. The measurement of the bound radioactivity is carried out by means of a scintillation measuring instrument (Topcount NXT, Perkin-Elmer).
The full value used is the inhibitor-free kinase reaction. This should be approximately in the range 6000-9000 cpm. The pharmacological zero value used is staurosporin in a final concentration of 0.1 mM. The inhibitory values (IC50) are determined using the RS1_MTS program.
Kinase reaction conditions per well: • 30 μl of assay buffer • 10 μl of substance to be tested in assay buffer with 10% of DMSO • 10 μl of ATP (final concentration 1 μM cold, 0.35 μCi of ^33P-ATP) • 50 μl of Met kinase/substrate mixture in assay buffer; (10 ng of enzyme/well, 50 ng of pAGLT/well)
Assay Buffer: • 50 mM HEPES • 3 mM magnesium chloride • 3 μM sodium orthovanadate • 3 mM manganese(II) chloride • 1 mM dithiothreitol (DTT) • pH=7.5 (to be set using sodium hydroxide)

T1 sequence (P08581 974-1390 limits assumed): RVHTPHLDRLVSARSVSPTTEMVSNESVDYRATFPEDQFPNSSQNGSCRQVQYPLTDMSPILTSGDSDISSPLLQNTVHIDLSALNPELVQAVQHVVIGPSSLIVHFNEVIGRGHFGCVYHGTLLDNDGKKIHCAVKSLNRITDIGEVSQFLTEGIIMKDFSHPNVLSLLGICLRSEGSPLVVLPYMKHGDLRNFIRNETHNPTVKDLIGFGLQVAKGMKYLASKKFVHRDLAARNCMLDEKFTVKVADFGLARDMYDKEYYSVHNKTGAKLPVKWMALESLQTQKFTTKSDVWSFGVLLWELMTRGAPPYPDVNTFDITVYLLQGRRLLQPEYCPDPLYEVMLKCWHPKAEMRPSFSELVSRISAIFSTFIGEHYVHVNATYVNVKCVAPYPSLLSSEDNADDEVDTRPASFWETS

The term IC50 denotes the concentration needed to halve the response being measured. Lower therefore signals greater potency. In turn, `CC(=O)Nc1cccc(Cn2nc(-c3cccc(O)c3)ccc2=O)c1` [A2, N-{3-[3-(3-hydroxyphenyl)-6-oxo-6H-pyridazin-1-ylmethyl]phenyl}acetamide] showed an IC50 of 10 to 1000 nM.

`CCOC(=O)Nc1cccc(Cn2nc(-c3ccc(Cl)cc3)ccc2=O)c1` [A3, ethyl {3-[3-(4-chlorophenyl)-6-oxo-6H-pyridazin-1-ylmethyl]phenyl}carbamate] returned an IC50 of 10 to 1000 nM.

For the molecule `COc1ccc(-c2ccc(=O)n(Cc3cccc(NC(C)=O)c3)n2)cc1OC` [A4], the IC50 was 10 to 1000 nM.

As to `CCOC(=O)Nc1cccc(Cn2nc(-c3ccc(F)cc3)ccc2=O)c1` [A5], the IC50 was 10 to 1000 nM.

Consider `CCOC(=O)Nc1cccc(Cn2nc(-c3cccc(Br)c3)ccc2=O)c1` [A6], for which the IC50 was 10 to 1000 nM.

As to `CC(=O)Nc1cccc(Cn2nc(-c3ccc(F)cc3)ccc2=O)c1` [A7], the IC50 fell in the range of 10 to 1000 nM.

`CCOC(=O)Nc1cccc(Cn2nc(-c3ccccc3)ccc2=O)c1` [A9] showed an IC50 of 10 to 1000 nM.

For `CCOC(=O)Nc1cccc(Cn2nc(-c3cccc(Cl)c3)ccc2=O)c1` [A10], the 50% inhibitory concentration (IC50) lay within 10 to 1000 nM.

Consider `O=c1ccc(-c2ccc(F)cc2)nn1Cc1ccc2c(c1)OCO2` [A12], for which the IC50 lay within 10 to 1000 nM.

Take `O=c1ccc(-c2ccc(F)cc2)nn1Cc1ccc2nsnc2c1` [A14]: the IC50 lay within 10 to 1000 nM.

Take `CN(C)CCCOC(=O)Nc1cccc(Cn2nc(-c3ccc(Cl)cc3)ccc2=O)c1` [A15, 3-dimethylaminopropyl {3-[3-(4-chlorophenyl)-6-oxo-6H-pyridazin-1-ylmethyl]phenyl}carbamate]: the half-inhibitory concentration (IC50) lay in the range of 10 to 1000 nM.

`CN(C)CCCOC(=O)Nc1cccc(Cn2nc(-c3cccc(Cl)c3)ccc2=O)c1` [A17] came in with an IC50 of 10 to 1000 nM.

Take `CCNC(=O)Nc1cccc(Cn2nc(-c3ccc(F)cc3)ccc2=O)c1` [A18, 1-ethyl-3-{3-[3-(4-fluorophenyl)-6-oxo-6H-pyridazin-1-ylmethyl]phenyl}urea]: the half-maximal inhibitory concentration (IC50) was 10 to 1000 nM.

Molecule `CCOC(=O)Nc1cccc(Cn2nc(-c3cccs3)ccc2=O)c1` [A19] displayed an IC50 of 10 to 1000 nM.

Molecule `CCNC(=O)Nc1cccc(Cn2nc(-c3cccc(Cl)c3)ccc2=O)c1` [A20] came in with an IC50 of 10 to 1000 nM.

The molecule `CCOC(=O)Nc1cccc(Cn2nc(-c3cccc(F)c3)ccc2=O)c1` [A38] gave an IC50 of 10 to 1000 nM.

Consider `CN(C)CCCOC(=O)Nc1cccc(Cn2nc(-c3cccc(C#N)c3)ccc2=O)c1` [A61, 3-Dimethylaminopropyl {3-[3-(3-cyanophenyl)-6-oxo-6H-pyridazin-1-ylmethyl]phenyl}carbamate], for which the IC50 fell in the range of 10 to 1000 nM.

As to `O=C(Nc1cccc(Cn2nc(-c3cccs3)ccc2=O)c1)OCCCN1CCOCC1` [A71, 3-Morpholin-4-ylpropyl [3-(6-oxo-3-thiophen-2-yl-6H-pyridazin-1-ylmethyl)phenyl]carbamate], the IC50 fell in the range of 10 to 1000 nM.

In the case of `O=C(Nc1cccc(Cn2nc(-c3cc(F)cc(F)c3)ccc2=O)c1)OCCCN1CCCC1` [A74, 3-Pyrrolidin-1-ylpropyl {3-[3-(3,5-difluorophenyl)-6-oxo-6H-pyridazin-1-ylmethyl]phenyl}carbamate], the IC50 lay in the range of 10 to 1000 nM.

For `COCCCOC(=O)Nc1cccc(Cn2nc(-c3cc(F)cc(F)c3)ccc2=O)c1` [A75, 3-Methoxypropyl {3-[3-(3,5-difluorophenyl)-6-oxo-6H-pyridazin-1-ylmethyl]phenyl}carbamate], the IC50 was in the range of 10 to 1000 nM.

Turning to `O=C(Nc1cccc(Cn2nc(-c3cc(F)c(F)c(F)c3)ccc2=O)c1)OCCCN1CCOCC1` [A78, 3-Morpholin-4-ylpropyl {3-[6-oxo-3-(3,4,5-trifluorophenyl)-6H-pyridazin-1-ylmethyl]phenyl}carbamate], the IC50 was 10 to 1000 nM.

In the case of `O=C(Nc1cccc(Cn2nc(-c3ccc(F)c(F)c3)ccc2=O)c1)OCCN1CCOCC1` [A81, 2-Morpholin-4-ylethyl {3-[3-(3,4-difluorophenyl)-6-oxo-6H-pyridazin-1-ylmethyl]phenyl}carbamate], the IC50 lay in the range of 10 to 1000 nM.

In turn, `N#Cc1cccc(-c2ccc(=O)n(Cc3cccc(NC(=O)OCCCN4CCOCC4)c3)n2)c1` [A88, 3-Morpholin-4-ylpropyl{3-[3-(3-cyanophenyl)-6-oxo-6H-pyridazin-1-ylmethyl]phenyl}carbamate] yielded a half-maximal inhibitory concentration (IC50) of 10 to 1000 nM.

The molecule `CN1CCN(CCOC(=O)Nc2cccc(Cn3nc(-c4ccc(F)c(F)c4)ccc3=O)c2)CC1` [A92, 2-(4-Methylpiperazin-1-yl)ethyl {3-[3-(3,4-difluorophenyl)-6-oxo-6H-pyridazin-1-ylmethyl]phenyl}carbamate] gave an IC50 of 10 to 1000 nM.

Consider `O=C(Nc1cccc(Cn2nc(-c3cc(F)c(F)c(F)c3)ccc2=O)c1)OCCN1CCOCC1` [A95, 2-Morpholin-4-ylethyl {3-[6-oxo-3-(3,4,5-trifluorophenyl)-6H-pyridazin-1-ylmethyl]phenyl}carbamate], for which the IC50 is 10 to 1000 nM.

`CN1CCN(CCCOC(=O)Nc2cccc(Cn3nc(-c4cc(F)c(F)c(F)c4)ccc3=O)c2)CC1` [A101, 3-(4-Methylpiperazin-1-yl)propyl {3-[6-oxo-3-(3,4,5-trifluorophenyl)-6H-pyridazin-1-ylmethyl]phenyl}carbamate] had an IC50 of 10 to 1000 nM.

`CN1CCN(CCCCOC(=O)Nc2cccc(Cn3nc(-c4cc(F)cc(F)c4)ccc3=O)c2)CC1` [A103, 4-(4-Methylpiperazin-1-yl)butyl {3-[3-(3,5-difluorophenyl)-6-oxo-6H-pyridazin-1-ylmethyl]phenyl}carbamate] had an IC50 of 10 to 1000 nM.

In turn, `CN1CCCC1CCOC(=O)Nc1cccc(Cn2nc(-c3cc(F)cc(F)c3)ccc2=O)c1` (stereo not shown) [A105, 2-(1-Methylpyrrolidin-2-yl)ethyl {3-[3-(3,5-difluorophenyl)-6-oxo-6H-pyridazin-1-ylmethyl]phenyl}carbamate] showed an IC50 of 10 to 1000 nM.

The molecule `CN1CCCC(COC(=O)Nc2cccc(Cn3nc(-c4cc(F)cc(F)c4)ccc3=O)c2)C1` (stereo not shown) [A106, 1-Methylpiperidin-3-ylmethyl {3-[3-(3,5-difluorophenyl)-6-oxo-6H-pyridazin-1-ylmethyl]phenyl}carbamate] had an IC50 of 10 to 1000 nM.

In the case of `CN1CCN(CCCOC(=O)Nc2cccc(Cn3nc(-c4cccc(C#N)c4)ccc3=O)c2)CC1` [A107, 3-(4-Methylpiperazin-1-yl)propyl {3-[3-(3-cyanophenyl)-6-oxo-6H-pyridazin-1-ylmethyl]phenyl}carbamate], the IC50 fell in the range of 10 to 1000 nM.

Take `CCN(CC)CCCOC(=O)Nc1cccc(Cn2nc(-c3cc(F)cc(F)c3)ccc2=O)c1` [A109, 3-Diethylaminopropyl {3-[3-(3,5-difluorophenyl)-6-oxo-6H-pyridazin-1-ylmethyl]phenyl}carbamate]: the half-inhibitory concentration (IC50) fell in the range of 10 to 1000 nM.

Molecule `CN(C)CCCCOC(=O)Nc1cccc(Cn2nc(-c3cc(F)cc(F)c3)ccc2=O)c1` [A110, 4-Dimethylaminobutyl {3-[3-(3,5-difluorophenyl)-6-oxo-6H-pyridazin-1-ylmethyl]phenyl}carbamate] returned an IC50 of 10 to 1000 nM.

In turn, `O=c1[nH]c2ccc(Cn3nc(-c4cccc(F)c4)ccc3=O)cc2[nH]1` [A127, 5-[3-(3-fluorophenyl)-6-oxo-6H-pyridazin-1-ylmethyl]-1,3-dihydrobenzimidazol-2-one] had a concentration for half-maximal inhibition (IC50) of 10 to 1000 nM.

Molecule `CNCCCOC(=O)Nc1cccc(Cn2nc(-c3cc(F)cc(F)c3)ccc2=O)c1` [A142, 3-methylaminopropyl {3-[3-(3,5-difluorophenyl)-6-oxo-6H-pyridazin-1-ylmethyl]phenyl}carbamate] had an IC50 of 10 to 1000 nM.

Take `O=C(Nc1cccc(Cn2nc(-c3cc(F)cc(F)c3)ccc2=O)c1)OCCN1CCNCC1` [A143, 2-Piperazin-1-ylethyl {3-[3-(3,5-difluorophenyl)-6-oxo-6H-pyridazin-1-ylmethyl]phenyl}carbamate]: the IC50 lay in the range of 10 to 1000 nM.

Regarding `O=C(Nc1cccc(Cn2nc(-c3cc(F)cc(F)c3)ccc2=O)c1)OCCCN1CCNCC1` [A145, 3-Piperazin-1-ylpropyl {3-[3-(3,5-difluorophenyl)-6-oxo-6H-pyridazin-1-ylmethyl]phenyl}carbamate], the IC50 lay within 10 to 1000 nM.

`CNCCCCOC(=O)Nc1cccc(Cn2nc(-c3cc(F)cc(F)c3)ccc2=O)c1` [A155, 4-Methylaminobutyl {3-[3-(3,5-difluorophenyl)-6-oxo-6H-pyridazin-1-ylmethyl]phenyl}carbamate] displayed an IC50 of 10 to 1000 nM.

`O=C(Nc1cccc(Cn2nc(-c3cc(F)cc(F)c3)ccc2=O)c1)OCC1CCNCC1` [A156, Piperidin-4-ylmethyl {3-[3-(3,5-difluorophenyl)-6-oxo-6H-pyridazin-1-ylmethyl]phenyl}carbamate]: the half-maximal inhibitory concentration (IC50) was in the range of 10 to 1000 nM.

For the molecule `O=c1ccc(-c2cc(F)cc(F)c2)nn1Cc1ccc2[nH]ncc2c1` [A161, 6-(3,5-difluorophenyl)-2-(1H-indazol-5-ylmethyl)-2H-pyridazin-3-one], the IC50 lay in the range of 10 to 1000 nM.

In turn, `O=c1[nH]c2ccc(Cn3nc(-c4cc(F)cc(F)c4)ccc3=O)cc2[nH]1` [A169, 5-[3-(3,5-Difluorophenyl)-6-oxo-6H-pyridazin-1-ylmethyl]-1,3-dihydrobenzimidazol-2-one] registered an IC50 of 10 to 1000 nM.
